{
  "source": "paper PMC3109436",
  "about": "(Journal of medicinal chemistry, 2009)",
  "key": {"[1]": {"tested_on": "A3AR", "conditions": "at 10 μM, percentage of full effect induced by 10 μM 51; cited from earlier work"}, "[2]": {"target": "T1, human A2A adenosine receptor (hA2AAR) (Homo sapiens, UniProt P29274)", "T1 sequence (P29274 whole entry)": "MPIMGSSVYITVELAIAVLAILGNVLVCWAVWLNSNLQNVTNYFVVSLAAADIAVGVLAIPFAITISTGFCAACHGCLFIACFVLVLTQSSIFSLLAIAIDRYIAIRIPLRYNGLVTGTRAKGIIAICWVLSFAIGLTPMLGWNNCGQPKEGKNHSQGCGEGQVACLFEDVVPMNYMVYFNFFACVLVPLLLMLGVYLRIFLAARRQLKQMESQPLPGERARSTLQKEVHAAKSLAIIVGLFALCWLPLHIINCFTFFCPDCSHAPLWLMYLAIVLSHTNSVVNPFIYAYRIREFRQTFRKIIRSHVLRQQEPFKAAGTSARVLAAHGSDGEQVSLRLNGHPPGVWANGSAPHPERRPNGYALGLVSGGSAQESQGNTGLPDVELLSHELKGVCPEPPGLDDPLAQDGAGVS", "conditions": "cited from earlier work; for % inhibition of radioligand binding A2A: at 10 μM"}, "[3]": {"target": "T2, human A3AR (Homo sapiens, UniProt P0DMS8)", "T2 sequence (P0DMS8 1-318)": "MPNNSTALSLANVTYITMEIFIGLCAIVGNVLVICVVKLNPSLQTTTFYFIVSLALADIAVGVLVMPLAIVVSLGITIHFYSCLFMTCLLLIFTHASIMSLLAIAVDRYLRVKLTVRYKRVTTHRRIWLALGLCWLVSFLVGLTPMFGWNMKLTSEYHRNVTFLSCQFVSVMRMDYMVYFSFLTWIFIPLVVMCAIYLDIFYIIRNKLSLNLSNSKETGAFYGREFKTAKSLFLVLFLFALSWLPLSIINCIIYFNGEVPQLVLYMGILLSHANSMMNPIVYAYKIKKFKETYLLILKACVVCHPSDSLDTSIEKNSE", "test": "Inhibition of forskolin-stimulated cAMP production", "conditions": "for agonist character at hA3AR in the adenylate cyclase (cAMP) assay: relative to full agonist 51"}, "[4]": {"target": "T3, human A3 adenosine receptor (hA3AR) (Homo sapiens, UniProt P0DMS8)", "T3 sequence (P0DMS8 1-318)": "T2 sequence (P0DMS8 1-318)", "test": "Radioligand binding at human A3AR, membranes of CHO cells"}, "[5]": {"target": "T1, human A2A adenosine receptor (hA2AAR)", "test": "Radioligand binding at human A2AAR, membranes of HEK293 cells"}, "[6]": {"target": "T4, rA3AR (Rattus norvegicus, UniProt P28647)", "T4 sequence (P28647 1-320)": "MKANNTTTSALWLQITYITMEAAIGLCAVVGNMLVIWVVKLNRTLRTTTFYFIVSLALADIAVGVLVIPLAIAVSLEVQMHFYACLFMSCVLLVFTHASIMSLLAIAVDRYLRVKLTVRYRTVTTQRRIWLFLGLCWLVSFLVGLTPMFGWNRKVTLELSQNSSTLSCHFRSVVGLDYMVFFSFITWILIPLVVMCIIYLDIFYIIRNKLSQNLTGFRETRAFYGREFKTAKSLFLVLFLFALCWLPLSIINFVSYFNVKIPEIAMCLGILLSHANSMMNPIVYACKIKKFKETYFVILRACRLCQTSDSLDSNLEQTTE", "test": "Radioligand binding at rat A3AR"}, "[7]": {"target": "T5, human A1 adenosine receptor (hA1AR) (Homo sapiens, UniProt P30542)", "T5 sequence (P30542 1-326)": "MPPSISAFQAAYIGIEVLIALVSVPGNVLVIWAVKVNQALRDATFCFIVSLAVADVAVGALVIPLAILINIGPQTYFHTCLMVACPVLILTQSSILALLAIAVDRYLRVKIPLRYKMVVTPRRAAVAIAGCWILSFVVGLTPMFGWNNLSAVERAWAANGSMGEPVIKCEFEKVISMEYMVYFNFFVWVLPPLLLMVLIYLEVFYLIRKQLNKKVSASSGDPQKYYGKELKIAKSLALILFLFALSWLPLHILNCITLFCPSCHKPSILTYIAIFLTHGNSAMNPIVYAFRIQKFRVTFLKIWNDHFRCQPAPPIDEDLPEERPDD", "test": "Radioligand binding at human A1AR, membranes of CHO cells"}, "[8]": {"target": "T2, human A3AR", "conditions": "at 10 μM, relative to 51 (= 100%); cited from earlier work"}},
  "note": "“And” between values parts separate entries of the source, which are not always exact repeats. Identical values can stand only once. “Also recorded” adds a separate entry of the source. Like-named read-outs stand apart in the source and are kept apart here. Marks after values point to notes of the source that are not given here.",
  "data": [
    {"smiles": "O[C@@H]1[C@H](O)[C@@H]2C[C@@H]2[C@H]1n1cnc2c(NCc3cccc(Cl)c3)nc(Cl)nc21", "note": "[Compound 2a]", "values": [
      {"measurement": "% efficacy, A3 (stimulation of [35S]GTPγS binding)", "setting": "[1]", "value": "2.9 ± 3.7 ^f %"}
    ]},
    {"smiles": "CNC(=O)[C@]12C[C@@H]1[C@@H](n1cnc3c(NCc4cccc(Cl)c4)nc(C#CCCCC(=O)NCCN)nc31)[C@H](O)[C@@H]2O", "note": "[Compound 12]", "values": [
      {"measurement": "% inhibition of radioligand binding A2A", "setting": "[2]", "value": "(81%)"}
    ]},
    {"smiles": "CNC(=O)[C@]12C[C@@H]1[C@@H](n1cnc3c(NCc4cccc(Cl)c4)nc(C#CCCCC(=O)OC)nc31)[C@H](O)[C@@H]2O", "note": "[Compound 9]", "values": [
      {"measurement": "% inhibition of radioligand binding A2A", "setting": "[2]", "value": "(49%)"}
    ]},
    {"smiles": "O[C@@H]1[C@H](O)[C@@H]2C[C@@H]2[C@H]1n1cnc2c(NCc3cccc(I)c3)nc(Cl)nc21", "note": "[Compound 2c, reference compound]", "values": [
      {"measurement": "% efficacy, A3 (stimulation of [35S]GTPγS binding)", "setting": "[1]", "value": "1.0 ± 3.2", "unit": "%"},
      {"measurement": "agonist character at hA3AR in the adenylate cyclase (cAMP) assay", "setting": "[3]", "value": "partial agonists"}
    ]},
    {"smiles": "O[C@@H]1[C@H](O)[C@@H]2C[C@@H]2[C@H]1n1cnc2c(NCc3cccc(I)c3)ncnc21", "note": "[Compound 23, (1′R,2′R,3′S,4′ S,5′ S)-4′-[6-(3-Iodobenzylamino)purine]-2′,3′-dihydroxybicyclo[3.1.0]hexane]", "values": [
      {"measurement": "Ki", "setting": "[4]", "value": "11 ± 2.2", "unit": "nM"},
      {"measurement": "Ki", "setting": "[5]", "value": "2330 ± 680", "unit": "nM"},
      {"measurement": "agonist character at hA3AR in the adenylate cyclase (cAMP) assay", "setting": "[3]", "value": "nearly full agonism"}
    ]},
    {"smiles": "CNC(=O)[C@@]12C[C@@H]1[C@@H](n1cnc3c(NCc4cccc(Cl)c4)nc(C#CCCCC(=O)O)nc31)[C@H](O)[C@@H]2O", "note": "[Compound 6]", "values": [
      {"measurement": "% inhibition of radioligand binding A2A", "setting": "[2]", "value": "(43%)"}
    ]},
    {"smiles": "O[C@@H]1[C@H](O)[C@@H]2C[C@@H]2[C@H]1n1cnc2c(NCc3cccc(Cl)c3)ncnc21", "note": "[Compound 22]", "values": [
      {"measurement": "agonist character at hA3AR in the adenylate cyclase (cAMP) assay", "setting": "[3]", "value": "partial"}
    ]},
    {"smiles": "O[C@@H]1[C@H](O)[C@@H]2C[C@@H]2[C@H]1n1cnc2c(NCc3cccc(Br)c3)nc(Cl)nc21", "note": "[Compound 2b, (1R,2R,3S,4R,5S)-4-(6-(3-bromobenzylamino)-2-chloro-9H-purin-9-yl)bicyclo-[3.1.0]hexane-2,3-diol, reference compound]", "values": [
      {"measurement": "agonist character at hA3AR in the adenylate cyclase (cAMP) assay", "setting": "[3]", "value": "partial agonists"}
    ]},
    {"smiles": "CCN1C(=CC=CC=CC2=[N+](CCCCCC(=O)NCCNC(=O)CCC#Cc3nc(NCc4cccc(Cl)c4)c4ncn(C5C(O)C(O)C6(C(=O)NC)CC56)c4n3)c3ccc(S(=O)(=O)O)cc3C2(C)C)C(C)(C)c2cc(S(=O)(=O)[O-])ccc21", "note": "(stereo not drawn) [Compound 18, (1′S,2′R,3′S,4′S,5′S)-4′-[6-(3-Chlorobenzylamino)-2-(N-cyaiune(β-aminoethylaminocarbonyl)-1-butynyl)-9-yl]-2′,3′-dihydroxybicyclo[3.1.0]hexane-1′-carboxylic Acid N-Methylamide]", "values": [
      {"measurement": "Ki", "setting": "[6]", "value": "9.62 nM and 9.6 nM"},
      {"measurement": "inhibition at 10 µM", "setting": "[7]; read-out: % inhibition of radioligand binding A1", "value": 36, "unit": "%"},
      {"measurement": "Ki", "setting": "[5]", "value": "4730 ± 1020", "unit": "nM"},
      {"measurement": "agonist character at hA3AR in the adenylate cyclase (cAMP) assay", "setting": "[3]", "value": "full agonist"}
    ]},
    {"smiles": "CNC(=O)[C@]12C[C@@H]1[C@@H](n1cnc3c(NCc4cccc(Cl)c4)nc(C#CCCC(=O)NCCNC(=O)CCCC[C@H]4SC[C@H]5NC(=O)N[C@H]54)nc31)[C@H](O)[C@@H]2O", "note": "[Compound 17a, (1′S,2′R,3′S,4′S,5′S)-4′-[6-(3-Chiorobenzylamino)-2-(N-biotinyl(β-aminoethylaminocarbonyl)-1-butynyl)-9-yl]-2′, 3′-dihydroxybicyclo[3.1.0]hexane-1′-carboxylic Acid N-Methylamide]", "values": [
      {"measurement": "EC50", "setting": "[3]", "value": "2.5 ± 0.42", "unit": "nM"}
    ]},
    {"smiles": "O[C@@H]1[C@H](O)[C@@H]2C[C@@H]2[C@H]1n1cnc2c(NC3CCCC3)nc(Cl)nc21", "note": "[Compound 25]", "values": [
      {"measurement": "fold reduction of affinity at A1AR on loss of the 5′-N-methyluronamide group", "setting": "[7]; 25 versus 4", "value": 6, "unit": "fold"},
      {"measurement": "fold reduction of affinity at A3AR on loss of the 5′-N-methyluronamide group", "setting": "[4]; 25 versus 4", "value": 32, "unit": "fold"},
      {"measurement": "agonist character at hA3AR in the adenylate cyclase (cAMP) assay", "setting": "[3]", "value": "nearly full agonism; also recorded: full agonist"}
    ]},
    {"smiles": "CNC(=O)[C@@]12C[C@@H]1[C@@H](n1cnc3c(NCc4cccc(I)c4)nc(Cl)nc31)[C@H](O)[C@@H]2O", "note": "[Compound 1b, reference compound]", "values": [
      {"measurement": "Ki", "setting": "[2]; read-out: affinity (Ki) A2A, HEK293 cells expressing hA2AAR", "value": "784 ± 97", "unit": "nM"},
      {"measurement": "% efficacy, A3 (inhibition of forskolin-stimulated cAMP production)", "setting": "[8]", "value": "100 ^c %"}
    ]}
  ]
}
